Data from patent US20240350493A1 (Kadmon Corporation, LLC, priority 2022, published 2024).
“Also recorded” adds a separate entry of the source. Like-named read-outs stand apart in the source and are kept apart here. Marks after values point to notes of the source that are not given here.

Assays:
CYP1A2 [1] = biological target: T1, CYP1A2 (Homo sapiens, UniProt P05177); assay: enzyme inhibition, in vitro; format: in vitro ADME
[2] = food effect study, 5 × 100 mg capsules (KD025-105); format: in vivo, human; conditions: for AUC(0-t) / AUC(0-inf) / Cmax / Tmax / half-life: male, human, plasma, oral, 500 mg, 5 × 100 mg capsules; for Tmax: read-out: Tmax, median (range)
Procedure: Both studies were single-center, open-label, randomized, single dose crossover studies in healthy males.
Water was permitted ad libitum except for 1 hour pre-and post-dose.
In both studies, serial blood samples for PK analysis were collected at pre-dose and 1, 2, 4, 6, 8, 12, 16, 24, and 36 hours post-dose. An additional sample at 30 hours post-dose was collected in the first study; additional samples were collected 3, 5, and 48 hours post-dose in the second study. Blood samples (5-6 mL per sample) were collected in K3EDTA tubes on ice and were processed within 30 minutes of collection, then frozen at approximately-70 to −80° C. shortly after collection.
Sample preparation was performed by protein precipitation.
Statistical analyses were performed in SAS using the PROC MIXED procedure and the Restricted Maximum Likelihood estimation method. In both studies, the presence of a food effect was evaluated by a formal statistical analysis on natural log-transformed AUC and Cmax using mixed effect modeling techniques. The model included treatment, period, and sequence as fixed effects and subject nested within sequence as a random effect. Adjusted geometric mean ratios (GMRs) and their 90% confidence intervals (CIs) were calculated for fed (test) versus fasted (reference) treatments. The absence of a food effect was to be concluded if the 90% CI was within the bioequivalence limits of 80.00 to 125.00%.

CYP1A2 [3] = biological target: T1, CYP1A2; assay: incubations with recombinant enzymes; format: in vitro ADME
[4] = phase I two-part drug-drug interaction study, plasma pharmacokinetics (Example 1); format: in vivo, human; conditions: for Cmax / Tmax / AUC from 0 to 24 h / AUC(0-inf) / AUC(0-t) / half-life: male, human, plasma, oral; for Tmax: read-out: Tmax, median (range)
From the text: The secondary objective was to provide additional information on the safety and tolerability of this dose regimen in healthy males.
This was a single center, non-randomized, DDI study in 35 (Part 1) and 38 (Part 2) healthy males. The key inclusion criterion was males aged 18 to 55 years (inclusive). […] In Part 2, co-administration with omeprazole was studied. The study design is illustrated in FIG. 1.
At least a 2-to 8-day washout occurred between each period to account for a minimum of 5 half-lives of the active moieties dosed in the preceding period.
Blood samples were collected into 6 mL K,EDTA tubes and were processed within 30 minutes of collection. The resultant plasma was then frozen within 90 minutes of collection and stored at […] until shipment to the bioanalytical laboratory.
For each comparison, PK parameters were natural log transformed and analyzed using mixed effect modeling with treatment included as a fixed effect and subject as a random effect. Adjusted geometric mean ratios (GMRs) and corresponding 90% CIs were calculated.

[5] = 200 mg belumosudil single dose + itraconazole
[6] = 200 mg belumosudil single dose + rabeprazole
[7] = 200 mg belumosudil single dose + rifampicin
[8] = 200 mg belumosudil single dose alone
[9] = coadministration of rabeprazole

T1 sequence (P05177 whole entry): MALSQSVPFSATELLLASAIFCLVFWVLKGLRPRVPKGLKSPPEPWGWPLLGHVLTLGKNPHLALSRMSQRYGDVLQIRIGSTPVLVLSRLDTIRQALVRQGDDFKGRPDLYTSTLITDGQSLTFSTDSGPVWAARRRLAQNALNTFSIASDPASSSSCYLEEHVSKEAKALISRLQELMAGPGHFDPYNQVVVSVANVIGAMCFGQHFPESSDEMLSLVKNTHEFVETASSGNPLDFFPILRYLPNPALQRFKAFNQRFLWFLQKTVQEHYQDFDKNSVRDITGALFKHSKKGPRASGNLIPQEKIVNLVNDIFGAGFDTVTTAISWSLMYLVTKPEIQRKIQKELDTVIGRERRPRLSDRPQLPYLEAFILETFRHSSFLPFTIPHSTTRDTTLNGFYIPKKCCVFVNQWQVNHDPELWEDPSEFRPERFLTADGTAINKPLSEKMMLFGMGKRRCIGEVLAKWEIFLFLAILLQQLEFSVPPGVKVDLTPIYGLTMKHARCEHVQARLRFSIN

SMILES: CC(C)NC(=O)COc1cccc(-c2nc(Nc3ccc4[nH]ncc4c3)c3ccccc3n2)c1 [Belumosudil, 2-{3-[4-(1H-indazol-5-ylamino)-2-quinazolinyl]phenoxy}-N-(propan-2-yl) acetamide]
- CYP1A2 inhibition (CYP1A2 [1]): inhibitor
- GMRs fed vs fasted for Cmax and AUC ([2]; 500 mg capsules): above 125%
- AUC(0-t) ([2]; fasted, read-out: AUC0-24, arithmetic mean (SD)): 7980 ng·h/mL
- AUC(0-t) ([2]; fasted, read-out: AUC0-24, geometric mean (geometric CV %)): 7600 ng·h/mL
- AUC(0-inf) ([2]; fasted, read-out: AUCinf, arithmetic mean (SD)): 8700 ng·h/mL
- AUC(0-inf) ([2]; fasted, read-out: AUCinf, geometric mean (geometric CV %)): 8310 ng·h/mL
- AUC(0-t) ([2]; fasted, read-out: AUClast, arithmetic mean (SD)): 8590 ng·h/mL
- AUC(0-t) ([2]; fasted, read-out: AUClast, geometric mean (geometric CV %)): 8190 ng·h/mL
- Cmax ([2]; fasted, read-out: Cmax, arithmetic mean (SD)): 1580 ng/mL
- Cmax ([2]; fasted, read-out: Cmax, geometric mean (geometric CV %)): 1500 ng/mL
- Tmax ([2]; fasted): 2 h
- half-life ([2]; fasted, read-out: t1/2, arithmetic mean (SD) (converted)): 9.5 h
- half-life ([2]; fasted, read-out: t1/2, geometric mean (geometric CV %) (converted)): 9 h
- AUC(0-t) ([2]; fed, read-out: AUC0-24, arithmetic mean (SD)): 25100 ng·h/mL
- AUC(0-t) ([2]; fed, read-out: AUC0-24, geometric mean (geometric CV %)): 23300 ng·h/mL
- AUC(0-inf) ([2]; fed, read-out: AUCinf, arithmetic mean (SD)): 26900 ng·h/mL
- AUC(0-inf) ([2]; fed, read-out: AUCinf, geometric mean (geometric CV %)): 25100 ng·h/mL
- AUC(0-t) ([2]; fed, read-out: AUClast, arithmetic mean (SD)): 26200 ng·h/mL
- AUC(0-t) ([2]; fed, read-out: AUClast, geometric mean (geometric CV %)): 24400 ng·h/mL
- Cmax ([2]; fed, read-out: Cmax, arithmetic mean (SD)): 4280 ng/mL
- Cmax ([2]; fed, read-out: Cmax, geometric mean (geometric CV %)): 3780 ng/mL
- Tmax ([2]; fed): 4 h
- half-life ([2]; fed, read-out: t1/2, arithmetic mean (SD) (converted)): 8 h
- half-life ([2]; fed, read-out: t1/2, geometric mean (geometric CV %) (converted)): 7.9 h
- share of belumosudil metabolism (CYP1A2 [3]): < 5%
- CL/F, arithmetic mean (SD) [4, 5]: 318 (117) ^b mL/min
- CL/F, geometric mean (geometric CV %) [4, 5]: 298 (38.1) ^b; mL/min
- CL/F, arithmetic mean (SD) [4, 6]: 2480 (2410) ^d mL/min
- CL/F, geometric mean (geometric CV %) [4, 6]: 1980 (65.8) ^d; mL/min
- CL/F, arithmetic mean (SD) [4, 7]: 1400 (450) ^c mL/min
- CL/F, geometric mean (geometric CV %) [4, 7]: 1330 (34.5) ^c; mL/min
- CL/F, arithmetic mean (SD) [4, 8]: 385 (116) ^a mL/min
- CL/F, geometric mean (geometric CV %) [4, 8]: 367 (33.3) ^a; mL/min
- change in belumosudil exposure ([4]; coadministration of itraconazole): no clinically meaningful effect; also recorded: No clinically relevant change
- decrease in AUC0-24 vs belumosudil alone ([4]; coadministration of omeprazole): 53%
- decrease in AUC vs belumosudil alone ([4]; coadministration of omeprazole): 47%
- decrease in Cmax (first dose) vs belumosudil alone ([4]; coadministration of omeprazole): 68%
- decrease in AUC vs belumosudil alone [4, 9]: 80%
- decrease in AUCinf vs belumosudil alone [4, 9]: ~80%
- decrease in AUClast vs belumosudil alone [4, 9]: ~82%
- decrease in AUCinf vs belumosudil alone ([4]; coadministration of rifampicin): ~72%
- decrease in AUClast vs belumosudil alone ([4]; coadministration of rifampicin): ~72%
- decrease in AUC vs belumosudil alone ([4]; coadministration of rifampin): 72%
- Cmax ([4]; 200 mg belumosudil BID + omeprazole, first dose, read-out: Cmax, arithmetic mean (SD)): 893 ng/mL
- Cmax ([4]; 200 mg belumosudil BID + omeprazole, first dose, read-out: Cmax, geometric mean (geometric CV %)): 575 ng/mL
- Tmax ([4]; 200 mg belumosudil BID + omeprazole, first dose): 4 h
- Cmax ([4]; 200 mg belumosudil BID + omeprazole, second dose, read-out: Cmax, arithmetic mean (SD)): 1050 ng/mL
- Cmax ([4]; 200 mg belumosudil BID + omeprazole, second dose, read-out: Cmax, geometric mean (geometric CV %)): 903 ng/mL
- Tmax ([4]; 200 mg belumosudil BID + omeprazole, second dose): 17 h
- AUC from 0 to 24 h ([4]; 200 mg belumosudil BID + omeprazole, read-out: AUC0-24, arithmetic mean (SD)): 9100 ng·h/mL
- AUC from 0 to 24 h ([4]; 200 mg belumosudil BID + omeprazole, read-out: AUC0-24, geometric mean (geometric CV %)): 7970 ng·h/mL
- AUC(0-inf) ([4]; 200 mg belumosudil BID + omeprazole, read-out: AUCinf, arithmetic mean (SD)): 11200 ng·h/mL
- AUC(0-inf) ([4]; 200 mg belumosudil BID + omeprazole, read-out: AUCinf, geometric mean (geometric CV %)): 9880 ng·h/mL
- AUC(0-t) ([4]; 200 mg belumosudil BID + omeprazole, read-out: AUClast, arithmetic mean (SD)): 10900 ng·h/mL
- AUC(0-t) ([4]; 200 mg belumosudil BID + omeprazole, read-out: AUClast, geometric mean (geometric CV %)): 9680 ng·h/mL
- half-life ([4]; 200 mg belumosudil BID + omeprazole, read-out: t1/2, arithmetic mean (SD) (converted)): 6.55 h
- half-life ([4]; 200 mg belumosudil BID + omeprazole, read-out: t1/2, geometric mean (geometric CV %) (converted)): 6.16 h
- AUC from 0 to 24 h ([4]; 200 mg belumosudil single dose + itraconazole, read-out: AUC0-24, arithmetic mean (SD)): 11000 ng·h/mL
